# Experimental data taken from patent US20100240653A1, “BIPHENYL SULFONYL AND PHENYL-HETEROARYL SULFONYL MODULATORS OF THE HISTAMINE H3-RECEPTOR USEFUL FOR THE TREATMENT OF DISORDERS RELATED THERETO” (priority 2006, published 2010).
# pKi: −log10 of the molar value.
# Experiments:
# Histamine H3-receptor = Histamine H3-receptor (Rattus norvegicus, UniProt Q9QYN8); assay: [3H]N-alpha-methyl-histamine competitive histamine H3-receptor binding assay (rat brain cortex membranes); conditions: whole rat brain cortex membranes, [3H]-N-α-methyl-histamine 1 nM
# Protocol: The histamine receptor binding assay was conducted using standard laboratory procedures as described below. A crude membrane fraction was prepared from whole rat brain cortex using a polytron to homogenize the tissue followed by differential centrifugation in a HEPES-based buffer containing protease inhibitors. Membranes where frozen at −80° C. until needed. Frozen membranes were thawed and resuspended in ice-cold assay buffer consisting of 50 mM TRIS containing 5 mM EDTA (pH=7.4). 50 micrograms (μg) of membrane protein was added to each well of a 96-well assay plate along with test compound and [^3H]-N-α-methyl-histamine (1 nanomolar (nM) final assay concentration). Imetit was used as an assay positive control at varying concentrations. The plate was incubated for 30 min at room temperature. The assay was terminated by rapid filtration through a 96-well glass fiber filtration plate (GF/C) using a cell harvester (Perkin-Elmer). Captured membranes were washed three times with cold assay buffer and plates were dried at 50° C. 35 microliters (μL) of scintillation cocktail was added to each well and membrane-bound radioactivity was recorded using a TopCount 96-well plate scintillation counter (Perkin-Elmer).
# male Sprague Dawley rats = assay: Blockade of RAMH-induced drinking assay; format: in vivo; conditions: rat, 0.3 mg/kg PO, RAMH 3 mg/kg SC, drinking 20 min
# Protocol: When administered to rodents, H3 agonists such as R-α-methyl-histamine (RAMH) induce a drinking response that is sensitive to reversal with an H3 antagonist. Blockade of RAMH-induced drinking can therefore be utilized as an in vivo assay for functional H3 antagonist activity. In this assay, male Sprague Dawley rats (250-350 g) were housed three per cage and maintained under a reverse 12 h light cycle (lights off at 1130 h). At 1030 h on the day of test, rats were individually housed in new cages and food was removed. 120 min later, rats were administered test article (vehicle or H3 antagonist, 0.3 mg/kg PO). 30 min later, water was removed, and RAMH (vehicle or RAMH 3 mg/kg salt SC) was administered. 10 min after administration of RAMH, weighed water bottles were placed in the cages, and drinking was allowed for 20 min. Water consumption was determined for each animal by weighing each bottle to the nearest 0.1 g. Data is expressed as percentage reduction in water intake according to the following formula:
# [1−[(ANTAGONIST/RAMH)−(VEHICLE/RAMH)/(VEHICLE/RAMH)−(VEHICLENEHICLE)]]*100
# [1] = target: T1, human histamine H3-receptor (Homo sapiens, UniProt Q9Y5N1); assay: Human histamine H3-receptor binding assay, MDS Pharma Services (Taiwan), Catalogue No. 239810
# T1 construct: purchased MDS Pharma Services (Taiwan) 239810
# Protocol: Compounds of the invention were tested for their ability to bind to the human histamine H3-receptor using the MDS Pharma Services (Taiwan) assay, Catalogue No. 239810.
# Male Sprague-Dawley rats = assay: Rat polysomnography (EEG/EMG wakefulness); format: in vivo; conditions: over 1 h after oral administration at 0.6 mg/kg
# Protocol: Animals: Male Sprague-Dawley rats (225-350 g) (Harlan, San Diego, Calif.) were singly housed and maintained in a humidity—(30-70%) and temperature—(20-22° C.) controlled facility on a 12 h:12 h light/dark cycle (lights on at 6:30 A.M.) with free access to food (Harlan-Teklad Western Res., Orange, Calif., Rodent Diet 8604) and water. Rats were allowed at least three days of habituation to the animal facility before surgery.
# Rats were anaesthetized with a ketamine/xylazine mixture, and surgically prepared for
# EEG and EMG recording. After 2-3 weeks of post-surgical recovery, rats were habituated to polypropylene test cages for at least three days. On test days, the rats were placed in the test chambers and habituated overnight. At 10 am the next day, the rats were administered the test compound, connected to the recording apparatus, and placed back into the test chambers for 3 h.
# EEG and EMG data were digitized and stored in 10 s epochs over the three hour test period. […] […] Percent increase in wakefulness was then derived for each rat.
# Histamine H3-receptor, sequence (Q9QYN8 1-397 isoform Q9QYN8-3): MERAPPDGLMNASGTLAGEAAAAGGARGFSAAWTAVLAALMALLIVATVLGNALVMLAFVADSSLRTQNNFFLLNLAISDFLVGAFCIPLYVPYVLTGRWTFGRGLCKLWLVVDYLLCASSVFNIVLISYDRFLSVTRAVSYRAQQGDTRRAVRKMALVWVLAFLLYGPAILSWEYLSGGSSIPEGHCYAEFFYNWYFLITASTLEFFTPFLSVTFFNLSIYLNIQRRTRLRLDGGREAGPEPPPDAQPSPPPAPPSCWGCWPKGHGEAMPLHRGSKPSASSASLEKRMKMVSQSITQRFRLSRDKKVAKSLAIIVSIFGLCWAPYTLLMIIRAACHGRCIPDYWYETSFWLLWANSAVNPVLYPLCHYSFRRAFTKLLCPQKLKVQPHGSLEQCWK
# T1 sequence (Q9Y5N1 whole entry): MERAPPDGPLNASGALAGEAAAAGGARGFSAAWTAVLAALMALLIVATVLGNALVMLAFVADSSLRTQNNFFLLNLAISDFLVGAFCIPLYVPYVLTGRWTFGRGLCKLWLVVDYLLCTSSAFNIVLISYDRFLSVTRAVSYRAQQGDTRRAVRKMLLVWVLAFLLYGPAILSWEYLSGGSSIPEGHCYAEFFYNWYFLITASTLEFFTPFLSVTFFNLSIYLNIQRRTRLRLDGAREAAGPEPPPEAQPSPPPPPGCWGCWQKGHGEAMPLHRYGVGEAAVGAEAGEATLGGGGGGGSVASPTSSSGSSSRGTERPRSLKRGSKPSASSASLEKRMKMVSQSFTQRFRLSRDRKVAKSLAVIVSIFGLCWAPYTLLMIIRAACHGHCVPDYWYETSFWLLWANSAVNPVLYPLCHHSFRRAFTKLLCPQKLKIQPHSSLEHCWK
SMILES,pKi (Histamine H3-receptor),% inhibition of RAMH-induced drinking (male Sprague Dawley rats) [%],other results
"CCS(=O)(=O)c1ccc(-c2ccc(CCN3CCC[C@H]3C)cc2)cc1 [Cmpd 2, (R)-1-[2-(4′-Ethanesulfonyl-biphenyl-4-yl)-ethyl]-2-methyl-pyrrolidine]",,82.6 ± 12.9,
"CCCS(=O)(=O)c1ccc(-c2ccc(CCN3CCC[C@H]3C)cc2)cc1 [Cmpd 5, (R)-2-Methyl-1-{2-[4′-(propane-1-sulfonyl)-biphenyl-4-yl]-ethyl}-pyrrolidine]",,,pKi [1]: 8.43
"C[C@@H]1CCCN1CCc1ccc(-c2ccc(S(=O)(=O)Cc3ccccc3)cc2)cc1 [Cmpd 6, (R)-2-Methyl-1-[2-(4′-phenylmethanesulfonyl-biphenyl-4-yl)-ethyl]-pyrrolidine]",8.96,,
"C[C@@H]1CCCN1CCc1ccc(-c2ccc3c(c2)C(=O)CCS3(=O)=O)cc1 [Cmpd 7, 6-{4-[2-((R)-2-Methyl-pyrrolidin-1-yl)-ethyl]-phenyl}-1,1-dioxo-1λ^6-thiochroman-4-one]",,92.5 ± 15.8,pKi [1]: 8.54
"C[C@@H]1CCCN1CCc1ccc(-c2ccc(S(=O)(=O)CCO)cc2)cc1 [Cmpd 10, 2-{4′-[2-((R)-2-Methyl-pyrrolidin-1-yl)-ethyl]-biphenyl-4-sulfonyl}-ethanol]",,,% Increase in wakefulness +/− s.e. (Male Sprague-Dawley rats): 46 ± 15%
"C[C@@H]1CCCN1CCc1ccc(-c2ccc(S(=O)(=O)CCCO)cc2)cc1 [Cmpd 15, 3-{4′-(2-((R)-2-Methyl-pyrrolidin-1-yl)-ethyl]-biphenyl-4-sulfonyl}-propan-1-ol]",,58.8 ± 16.1,
"C[C@@H]1CCCN1CCc1ccc(-c2cccc(S(=O)(=O)CCO)c2)cc1 [Cmpd 17, 2-{4′-[2-((R)-2-Methyl-pyrrolidin-1-yl)-ethyl]-biphenyl-3-sulfonyl}-ethanol]",7.80,,

# Continued, in another order:
pKi (Histamine H3-receptor),SMILES,% inhibition of RAMH-induced drinking (male Sprague Dawley rats) [%],other results
8.62,"C[C@@H]1CCCN1CCc1ccc(-c2ccc(S(C)(=O)=O)cc2)cc1 [Cmpd 1, (R)-1-[2-(4′-Methanesulfonyl-biphenyl-4-yl)-ethyl]-2-methyl-pyrrolidine]",,
8.52,"COCCS(=O)(=O)c1ccc(-c2ccc(CCN3CCC[C@H]3C)cc2)cc1 [Cmpd 3, (R)-1-{2-[4′-(2-Methoxy-ethanesulfonyl)-biphenyl-4-yl]-ethyl}-2-methyl-pyrrolidine]",,
8.82,"COCCCS(=O)(=O)c1ccc(-c2ccc(CCN3CCC[C@H]3C)cc2)cc1 [Cmpd 8, (R)-1-{2-[4′-(3-Methoxy-propane-1-sulfonyl)-biphenyl-4-yl]-ethyl}-2-methyl-pyrrolidine]",,
